{"source": "patent US9637529B2", "about": "“Medicament for atrophy treatment or increasing cell growth” (SIMU TRADE CONSULTING GMBH & CO. LEASING KG, priority 2012, dated 2017)", "key": {"zebrafish": {"test_system": "zebrafish", "assay": "Zebrafish TUNEL in situ staining of apoptotic cells", "type": "in vivo", "details": "gill, skeletal muscle and tail sections, versus untreated animals", "method": "FIG. 18: Apoptotic cells detected by TUNEL technology in gill, skeletal muscle and tail sections.\nSERF2 was administered by a) injection of the native protein into the yolk sac of 3 day post fertilization (dpf) animals and freshly fertilized eggs (2-8 cell stage) in various protein concentrations or chronic incubation with the native protein to supply it via diffusion. For in deep analysis of angiogenic effects flk-1 transgenic animals with gfp (green fluorescent protein) labelled endothelium were used. For all other experiments wildtype (wdt) animals were used.\nApoptotic. cells were detected by TUNEL technology using in situ Cell Death Detection Kit, Fluorescein (Roche Applied Science, Mannheim, Germany) according to the manufacturer's instructions. Statistical Analysis. The acquired data statistically analyzed by using a two tailed students t-Test (Microsoft Excel) and significance was accepted when P<0.05. Data are presented as mean±S.E.M."}, "[1]": {"test_system": "chorionallantoic membrane (CAM)", "assay": "Hen's Egg Test - Chorionallantoic Membrane (HET-CAM) angiogenesis assay", "type": "in vivo, chicken", "details": "SERF2 3 μg/CAM, VEGF-A 0.5 μg/CAM; treatment on embryonic day 6 and 7; microscopic evaluation, manual count", "method": "FIG. 12: Proangiogenic effect of SERF2 in CAM assays. To evaluate the pro-angiogenic properties of SERF2, 3 μg of A: PBS and C: SERF2 was applied per CAM. B: VEGF-A (0.5 μg/CAM) was used as positive control, PBS served as a negative control. […] Treatment was performed on embryonic day 6 and 7. Angiogenic responses were evaluated microscopically. Pictures shown were taken for documentation on day 6.\nFertilized specific-pathogen free eggs (White Leghorn) were obtained from BAXTER Biosciences (Vienna, Austria) on embryonic day 5 (E5). Eggs were disinfected on the surface using a towel soaked with Microzid (Schlilke, Austria). A tiny hole was drilled and 3 ml albumen were removed using a syringe equipped with a 18 G needle. Subsequently, the hole was covered with paraffin. To open the eggs, another hole was drilled on top. The egg shell was removed in this area using a pair of tweezers. […] Angiogenic potential of tested peptides was evaluated microscopically at the end of the experiment.\nThe HET-CAM assay enables the assessment of the angiogenic potential of substrates or cells. A suitable VEGF concentration was determined, which can be used as positive control. […] Angiogenic response was determined on Ell by light microscopy.\nTo evaluate the pro-angiogenic properties of SERF2, the protein was subjected to Het-CAM assay. […] Angiogenic responses were evaluated microscopically on E7 as well as on E8. […]"}, "[2]": {"test_system": "human epithelial cell line (MCF-7)", "assay": "H2O2-induced apoptosis, trypan-blue staining, MCF-7", "type": "cell-based", "details": "200 mM H2O2, SERF2 5 μg/ml, 6 hours, serum-free", "method": "(§1) Experiments were performed in 6-well plates containing 5 ml cell culture medium (serum-free) per well and were seeded at a cell density of 1*10^6 cells/well and cultured overnight. On the next day 200 mM H2O2 or 200 mM H2O2 and SERF2 (5 μg/ml) was added to cultures. After 6 hours of incubation, the adherent cells were harvested, washed 3 times in PBS and dead cells were detected by trypan-blue staining using light microscopy. Shown is the percentage of dead cells.\n(§2) Trypan Blue staining is one of the most commonly used methods to determine the cell viability using light microscopy. Trypan blue can only stain cells if their membrane is damaged.\n(§3) The question was asked whether SERF2 has an effect on growth factor deprivation- or stress-induced apoptosis. The experimental protocol included addition of Hydrogen peroxide (H2O2), which is known to cause cellular stress and consequently apoptotic death in doses below 200 μM (Cox A., Carcinogenesis. 2007, Vol. 28, 10). Furthermore apoptosis was induced by deprivation of granulocyte macrophage colony-stimulating factor (GM-CSF) in cultures of TF-1 cells. These cells are dependent on the presence of a growth factor which is absolutely necessary for growth and differentiation of TF-1 cells."}, "[3]": {"test_system": "mouse satellite cells (MuMa23/P13)", "assay": "AlamarBlue proliferation assay, primary satellite cells", "type": "cell-based", "details": "24 hrs, SERF2 20 and 4 μg/ml", "method": "FIG. 4: Effect of SERF2 on Proliferation of mouse satellite cells (MuMa23/P13). Proliferation assay was performed essentially as in FIG. 2. Incubation time was 24 hrs, added SERF2 concentrations were 20 and 4 μg/ml, respectively.\nMuscle tissue was taken from male ICR mice and minced by using scissors and a scalpel. Following incubation in protease solution (Sigma, St. Lois) for 1 h at 37° C., remaining tissue clumps were dissociated by vigorousely pipetting and loaded onto a Percoll (Pharmacia) gradient (75%, 50%, 30%). After centrifugation for 20 min at 1250×g, cells were collected from the 2nd interphase (99% satellite cells), washed and cultured at a cell density of 1×10^5 cells/ml in 6-well plates. See also Danoviz ewt al. Methods Mol Biol. 2012; 798: 21-52.\nProliferation was measured using the AlamarBlue™ assay according to the manufacturer's protocol. Briefly, 1×10^4 cells were seeded per well containing 100 μl growth medium. Cells were incubated over night at +37° C., 5% v/v CO^2 and humidified atmosphere. Prior performing the assay, viability of cells was checked under the microscope. Usually cells reached 60% confluence. Cells were washed three times with 100 μl DPBS per well. […] Fluorescence (Ex. 570 nm, Em. 585 nm) was measured using a Varioskan Flash multi-plate reader (Thermo Scientific). Data were evaluated using Microsoft Excel and GraphPad Prism V4."}, "[4]": {"test_system": "human epithelial cell line (A431)", "assay": "H2O2-induced apoptosis, trypan-blue staining, A431", "type": "cell-based", "details": "200 mM H2O2, SERF2 5 μg/ml, 6 hours, serum-free", "method": "as §1, §2, §3"}}, "note": "Entries after “also recorded” stand apart in the source; their conditions may differ.", "data": [{"substance": "SERF2: Small EDRK-rich factor 2, mature protein of 59 amino acids (SEQ ID NO: 1) (MTRGNQRELARQKNMKKQSDSVKGKRRDDGLSAAARKQRDSEIMQQKQKKANEKKEEPK; homo sapiens)", "values": [{"measurement": "number of apoptotic cells (TUNEL)", "setting": "zebrafish", "result": "reduced number of apoptotic cells; also recorded: lower in different regions as compared to untreated animals"}, {"measurement": "angiogenic response (newly formed vessels) in CAM", "setting": "[1]", "result": "pro-angiogenic response; also recorded: New vessels were identified"}, {"measurement": "protection from H2O2-induced apoptosis (percentage of dead cells), MCF-7", "setting": "[2]", "result": "markedly reduced apoptosis; also recorded: protects a human epithelial cell line (MCF-7) from H2O2-induced apoptosis"}, {"measurement": "proliferative effect on mouse satellite cells", "setting": "[3]", "result": "proliferative effect in a dose-dependent manner"}, {"measurement": "protection from H2O2-induced apoptosis (percentage of dead cells), A431", "setting": "[4]", "result": "markedly reduced apoptosis; also recorded: protects a human epithelial cell line (A431) from H2O2-induced apoptosis"}]}]}
